Measurements taken from ChEMBL document CHEMBL1144148, “DNA polymerase beta inhibitors from Baeckea gunniana” (J Nat Prod, 1999).

Columns and labels:
[1] = target: T1, DNA polymerase beta (Rattus norvegicus, UniProt P06766); experiment: Inhibition of rat DNA polymerase beta in presence of BSA
[2] = target: DNA polymerase beta (Rattus norvegicus) (UniProt P06766); experiment: Inhibition of rat DNA polymerase beta at 10 ug/mL
[3] = target: DNA polymerase beta (Rattus norvegicus) (UniProt P06766); experiment: Inhibition of rat DNA polymerase beta at 50 ug/mL
[4] = target: T1, DNA polymerase beta; experiment: Inhibition of rat DNA polymerase beta in absence of BSA

| SMILES | IC50 [1] [µM] | inhibition [2] [%] | inhibition [3] [%] | IC50 [4] [µM] |
| --- | --- | --- | --- | --- |
| C=C1CC[C@]2(C(=O)O)CC[C@]3(C)[C@H](CC[C@@H]4[C@@]5(C)CC[C@H](O)C(C)(C)[C@@H]5CC[C@]43C)C2=C1C | 5.6 | 68 | 82 | 2.5 |
| C=C1[C@H]2C3=CC[C@@H]4[C@@]5(C)CC[C@H](O)C(C)(C)[C@@H]5CC[C@@]4(C)[C@]3(C)CC[C@@]2(C(=O)O)CC[C@H]1C | 5.3 | 65 | 80 | 3.2 |
| CC1(C)CC[C@]2(C(=O)O)CC[C@]3(C)C(=CC[C@@H]4[C@@]5(C)CC[C@H](O)C(C)(C)[C@@H]5CC[C@]43C)[C@@H]2C1 [OLEANOLIC_ACID] | 7.5 | 42 | 90 | 3.7 |
| C[C@H]1[C@H](C)CC[C@]2(C(=O)O)CC[C@]3(C)C(=CC[C@@H]4[C@@]5(C)CC[C@H](O)C(C)(C)[C@@H]5CC[C@]43C)[C@H]12 [URSOLIC ACID] | 8.5 | 55 | 90 | 4.8 |
